22 molecules from ChEMBL document CHEMBL1150318, “Discovery of a novel, orally active himbacine-based thrombin receptor antagonist (SCH 530348) with potent antiplatelet activity” (J Med Chem, 2008) can be followed below.

Data set [1] concerns the target T1, Proteinase-activated receptor 1 (Homo sapiens, UniProt P25116).
T1 sequence (P25116 whole entry): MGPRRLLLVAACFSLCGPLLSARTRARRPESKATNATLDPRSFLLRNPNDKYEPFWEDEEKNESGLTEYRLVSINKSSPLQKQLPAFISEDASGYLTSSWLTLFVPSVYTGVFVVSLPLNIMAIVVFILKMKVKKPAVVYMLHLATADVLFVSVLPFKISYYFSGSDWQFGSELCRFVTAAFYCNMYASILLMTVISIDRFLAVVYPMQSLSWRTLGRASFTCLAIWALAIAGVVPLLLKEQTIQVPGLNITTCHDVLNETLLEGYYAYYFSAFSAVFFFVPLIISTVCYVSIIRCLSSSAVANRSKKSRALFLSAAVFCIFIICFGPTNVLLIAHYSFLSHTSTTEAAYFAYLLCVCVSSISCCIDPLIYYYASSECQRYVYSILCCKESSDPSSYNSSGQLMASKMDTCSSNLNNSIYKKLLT
In words: Displacement of [3H]haTRAP from PAR1 in human platelets. On the technique in general: In a radioligand displacement assay an active substance lowers the binding of a labelled ligand.

Data set [2] concerns Platelet. Briefly: Ex vivo inhibition of haTRAP-induced platelet aggregation in cynomolgus monkey at 0.5 mg/kg, po by impedance aggregometry. In kind it is functional, organism-based. Details: dose 0.5 mg/kg. The settings on record: Macaca fascicularis.
The test system of data set [3] is Platelet. Briefly: Ex vivo inhibition of haTRAP-induced platelet aggregation in cynomolgus monkey at 1 mg/kg, po after 6 hrs by impedance aggregometry. In kind it is functional. The settings on record: Macaca fascicularis.
Data set [4] can be described thus: Cmax in cynomolgus monkey at 1 mg/kg, po after 24 hrs. In kind it is ADME, organism-based, Macaca fascicularis. Details: dose 1 mg/kg, route oral. To be noted: in vivo.
Data set [5] relates to Platelet. Briefly: Ex vivo inhibition of haTRAP-induced platelet aggregation in cynomolgus monkey at 1 mg/kg, po after 24 hrs by impedance aggregometry. In kind it is functional. The settings on record: Macaca fascicularis.
Data set [6] can be described thus: AUC (0 to 24 hrs) in cynomolgus monkey at 1 mg/kg, po after 24 hrs. In kind it is ADME, organism-based, Macaca fascicularis. On the set-up: time < 24 hr, dose 1 mg/kg, route oral. To be noted: plasma.
Data set [7] can be described thus: AUC (0 to 24 hrs) in cynomolgus monkey at 0.1 mg/kg, po after 24 hrs. On the set-up: time < 24 hr, dose 0.1 mg/kg, route oral. To be noted: plasma. In kind it is ADME, organism-based, Macaca fascicularis.
Data set [8] concerns Platelet. Briefly: Ex vivo inhibition of haTRAP-induced platelet aggregation in cynomolgus monkey at 0.1 mg/kg, po after 24 hrs by impedance aggregometry. In kind it is functional. The settings on record: Macaca fascicularis.
Data set [9] in a line: Cmax in cynomolgus monkey at 0.1 mg/kg, po after 24 hrs. On the set-up: dose 0.1 mg/kg, route oral. To be noted: in vivo. In kind it is ADME, organism-based, Macaca fascicularis.

Activity calls are given as the source filed them. No cut-off for these calls is given here. Where only a bound is given, the exact number is not on record here.

In [1], `CC(=O)N[C@@H]1CC[C@@H]2[C@@H](C1)C[C@H]1C(=O)O[C@H](C)[C@H]1[C@H]2/C=C/c1ccc(-c2cccc(F)c2)cn1` came in with a Ki of 6.2 nM.

As for `CCOC(=O)N(C)[C@@H]1CC[C@@H]2[C@@H](C1)C[C@H]1C(=O)O[C@H](C)[C@H]1[C@H]2/C=C/c1ccc(-c2cccc(F)c2)cn1`, the inhibition constant Ki in data set [1] amounted to 4.1 nM. In the data set with Platelet [2], the result was inactive.

In the case of `CC(=O)N[C@@H]1CC[C@@H]2[C@@H](C1)C[C@H]1C(=O)O[C@H](C)[C@H]1[C@H]2/C=C/c1ccc(-c2cccc(C(F)(F)F)c2)cn1`, the Ki in data set [1] is 30 nM.

`C[C@H]1OC(=O)[C@@H]2C[C@@H]3C[C@H](NS(C)(=O)=O)CC[C@H]3[C@H](/C=C/c3ccc(-c4cccc(F)c4)cn3)[C@H]12` gave an inhibition constant Ki in data set [1] of 11 nM. In addition, the inhibition in vivo at 1 mg/kg in the data set with Platelet [3] was less than 40%.

For `CCOC(=O)N[C@@H]1CC[C@@H]2[C@@H](C1)C[C@H]1C(=O)O[C@H](C)[C@H]1[C@H]2/C=C/c1ccc(-c2cccc(C)c2F)cn1`, the Ki in data set [1] turned out to be 11 nM. In addition, in data set [4], the Cmax was 20 nM. The same molecule came in with an inhibition in vivo at 1 mg/kg in the data set with Platelet [5] of 100%. For the same molecule, in [6], the AUC(0-t) at 24 h amounted to 0.13 µM·h.

`CNC(=O)N[C@@H]1CC[C@@H]2[C@@H](C1)C[C@H]1C(=O)O[C@H](C)[C@H]1[C@H]2/C=C/c1ccc(-c2cccc(F)c2)cn1` had a Ki in [1] of 4.4 nM. Further, the Cmax in [4] was 260 nM. In the data set on Platelet [5], this molecule displayed an inhibition in vivo at 1 mg/kg of 55%. In data set [6], this molecule gave an area under the curve AUC(0-t) at 24 h of 2.63 µM·h.

`C[C@H]1OC(=O)[C@@H]2C[C@@H]3C[C@H](NC(=O)C4CC4)CC[C@H]3[C@H](/C=C/c3ccc(-c4cccc(F)c4)cn3)[C@H]12` registered a Ki in [1] of 6.5 nM. Besides, in data set [4], the peak level (Cmax) was 390 nM. The molecule also gave an inhibition in vivo at 1 mg/kg in the data set on Platelet [5] of 100%. In addition, the area under the curve AUC(0-t) at 24 h in data set [6] turned out to be 5.53 µM·h.

Take `C[C@H]1OC(=O)[C@@H]2C[C@@H]3C[C@H](NC(=O)OC(C)(C)C)CC[C@H]3[C@H](/C=C/c3ccc(-c4cccc(C#N)c4)cn3)[C@H]12`: the affinity in data set [1], expressed as Ki, was 44 nM.

In data set [1], `COC(=O)N[C@@H]1CC[C@@H]2[C@@H](C1)C[C@H]1C(=O)O[C@H](C)[C@H]1[C@H]2/C=C/c1ccc(-c2cccc(F)c2)cn1` had a Ki of 6.1 nM.

Consider `C[C@H]1OC(=O)[C@@H]2C[C@@H]3C[C@H](N)CC[C@H]3[C@H](/C=C/c3ccc(-c4cccc(F)c4)cn3)[C@H]12`, for which the inhibition constant Ki in data set [1] was determined as 20 nM. For the same molecule, the inhibition in vivo at 1 mg/kg with Platelet [3] is less than 40%.

As to `CCOC(=O)N[C@@H]1CC[C@@H]2[C@@H](C1)C[C@H]1C(=O)O[C@H](C)[C@H]1[C@H]2/C=C/c1ccc(-c2ccccc2F)cn1`, the affinity in [1] corresponds to a Ki of 11 nM. In data set [7], this molecule returned an AUC(0-t) at 24 h of 0.2 µM·h. In the data set on Platelet [8], this molecule yielded an inhibition in vivo at 0.1 mg/kg of 80%. Also, in data set [9], the peak concentration (Cmax) was determined as 24 nM.

`CCOC(=O)N[C@@H]1CC[C@@H]2[C@@H](C1)C[C@H]1C(=O)O[C@H](C)[C@H]1[C@H]2/C=C/c1ccc(-c2cccc(C(N)=O)c2)cn1`: affinity in data set [1] was put at a Ki of 367 nM.

As to `CCNC(=O)N[C@@H]1CC[C@@H]2[C@@H](C1)C[C@H]1C(=O)O[C@H](C)[C@H]1[C@H]2/C=C/c1ccc(-c2cccc(F)c2)cn1`, the affinity in data set [1], expressed as Ki, was 4.8 nM.

Take `CCOC(=O)N[C@@H]1CC[C@@H]2[C@@H](C1)C[C@H]1C(=O)O[C@H](C)[C@H]1[C@H]2/C=C/c1ccc(-c2cccc(C#N)c2)cn1`: the Ki in data set [1] stood at 1.8 nM. This molecule also registered an area under the curve AUC(0-t) at 24 h in [7] of 2.08 µM·h. Further, the inhibition in vivo at 0.1 mg/kg with Platelet [8] came to 80%. The Cmax in [9] amounted to 200 nM.

As for `CCOC(=O)N[C@@H]1CC[C@@H]2[C@@H](C1)C[C@H]1C(=O)O[C@H](C)[C@H]1[C@H]2/C=C/c1ccc(-c2cccc(Cl)c2)cn1`, the inhibition constant (Ki) in data set [1] stood at 11 nM.

Molecule `CCCOC(=O)N[C@@H]1CC[C@@H]2[C@@H](C1)C[C@H]1C(=O)O[C@H](C)[C@H]1[C@H]2/C=C/c1ccc(-c2cccc(F)c2)cn1` registered an inhibitory constant (Ki) in data set [1] of 17 nM.

`CCC(=O)N[C@@H]1CC[C@@H]2[C@@H](C1)C[C@H]1C(=O)O[C@H](C)[C@H]1[C@H]2/C=C/c1ccc(-c2cccc(F)c2)cn1` displayed a Ki in data set [1] of 6.4 nM. This molecule came in with a maximum concentration (Cmax) in data set [4] of 750 nM. In addition, the inhibition in vivo at 1 mg/kg in the data set on Platelet [5] amounted to 100%. In data set [6], this molecule came in with an area under the curve AUC(0-t) at 24 h of 11.4 µM·h.

As to `CCOC(=O)N[C@@H]1CC[C@@H]2[C@@H](C1)C[C@H]1C(=O)O[C@H](C)[C@H]1[C@H]2/C=C/c1ccc(-c2cc(F)cc(F)c2)cn1`, the inhibition constant (Ki) in data set [1] came to 5.9 nM.

With `C[C@H]1OC(=O)[C@@H]2C[C@@H]3C[C@H](NS(C)(=O)=O)CC[C@H]3[C@H](/C=C/c3ccc(-c4cccc(C(F)(F)F)c4)cn3)[C@H]12`, in [1], the affinity corresponds to a Ki of 10 nM.

In data set [1], `CCOC(=O)N[C@@H]1CC[C@@H]2[C@@H](C1)C[C@H]1C(=O)O[C@H](C)[C@H]1[C@H]2/C=C/c1ccc(-c2cccc(OC)c2)cn1` yielded a Ki of 5.9 nM.

On to `CCCN(C(=O)OCC)[C@@H]1CC[C@@H]2[C@@H](C1)C[C@H]1C(=O)O[C@H](C)[C@H]1[C@H]2/C=C/c1ccc(-c2cccc(F)c2)cn1`, for which the Ki in data set [1] came to 89 nM.

For `CCOC(=O)N(C)[C@@H]1CC[C@@H]2[C@@H](C1)C[C@H]1C(=O)O[C@H](C)[C@H]1[C@H]2/C=C/c1ccc(-c2cccc(C(F)(F)F)c2)cn1`, in data set [1], the affinity corresponds to a Ki of 3.7 nM.

In general, Ki refers to the equilibrium dissociation constant of an inhibitor or competing ligand from its target. A word on the inhibition in vivo: it is the change of the read-out against control, counted positive when it falls. The term Cmax denotes the maximum level reached in the sampled fluid or tissue. For orientation: AUC(0-t) means the area under the concentration-time curve up to a stated or last time point.
